Measurements: PubChem BioAssay AID504381 (The Scripps Research Institute Molecular Screening Center, 2011)
Active and inactive are the calls of the source. The rule behind the calls is not given here.

What was measured:
Assay in all cases: radioligand displacement at receptors and transporters – biochemical, PDSP panel, Set 2, late-stage follow-up (AID 504381)
Muscarinic receptor M4 = details: PDSP radioligand binding panel, at 10 µM, hits give high values
[1] = test system: Adrenergic receptor Beta1; details: PDSP radioligand binding panel, at 10 µM, hits give high values
[2] = test system: Biogenic amine transporter NET; details: PDSP radioligand binding panel, at 10 µM, hits give high values
[3] = test system: Biogenic amine transporter DAT; details: PDSP radioligand binding panel, at 10 µM, hits give high values
[4] = target: D(1B) dopamine receptor (Homo sapiens) (UniProt P21918); details: PDSP radioligand binding panel, Dopamine receptor D5, at 10 µM, hits give high values
Sequence of D(1B) dopamine receptor (Homo sapiens) (P21918 whole entry, looked up): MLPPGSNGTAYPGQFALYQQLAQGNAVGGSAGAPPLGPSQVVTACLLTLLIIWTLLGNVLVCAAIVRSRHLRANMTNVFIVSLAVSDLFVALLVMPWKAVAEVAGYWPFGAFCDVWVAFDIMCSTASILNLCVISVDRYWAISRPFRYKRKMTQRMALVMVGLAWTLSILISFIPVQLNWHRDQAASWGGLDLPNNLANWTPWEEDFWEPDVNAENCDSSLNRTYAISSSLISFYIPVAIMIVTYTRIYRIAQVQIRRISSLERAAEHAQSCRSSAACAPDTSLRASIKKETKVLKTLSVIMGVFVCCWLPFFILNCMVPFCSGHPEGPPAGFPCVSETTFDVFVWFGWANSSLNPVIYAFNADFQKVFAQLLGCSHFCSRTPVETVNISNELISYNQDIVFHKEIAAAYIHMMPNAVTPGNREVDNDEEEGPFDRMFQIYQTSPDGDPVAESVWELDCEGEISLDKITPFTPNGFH

Dopamine receptor D4 = details: PDSP radioligand binding panel, at 10 µM, hits give high values
[5] = test system: Biogenic amine transporter SERT; details: PDSP radioligand binding panel, at 10 µM, hits give high values
[6] = test system: Adrenergic receptor Beta3; details: PDSP radioligand binding panel, at 10 µM, hits give high values
Muscarinic receptor M5 = details: PDSP radioligand binding panel, at 10 µM, hits give high values
Dopamine receptor D2 = details: PDSP radioligand binding panel, at 10 µM, hits give high values
[7] = target: Kappa-type opioid receptor (Homo sapiens) (UniProt P41145); details: PDSP radioligand binding panel, Opioid receptor KOR, at 10 µM, hits give high values
Sequence of Kappa-type opioid receptor (Homo sapiens) (P41145 whole entry, looked up): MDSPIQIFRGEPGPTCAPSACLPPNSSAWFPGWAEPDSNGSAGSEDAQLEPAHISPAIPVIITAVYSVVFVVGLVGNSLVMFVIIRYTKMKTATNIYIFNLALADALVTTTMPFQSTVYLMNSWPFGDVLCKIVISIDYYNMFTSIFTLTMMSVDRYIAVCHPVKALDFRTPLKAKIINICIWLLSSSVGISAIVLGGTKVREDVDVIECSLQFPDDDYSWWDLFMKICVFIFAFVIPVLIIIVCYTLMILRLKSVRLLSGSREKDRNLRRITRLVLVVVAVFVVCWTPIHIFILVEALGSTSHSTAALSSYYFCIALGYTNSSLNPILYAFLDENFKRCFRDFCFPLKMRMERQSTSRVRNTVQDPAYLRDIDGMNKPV

Histamine receptor H3 = details: PDSP radioligand binding panel, at 10 µM, hits give high values
Histamine receptor H1 = details: PDSP radioligand binding panel, at 10 µM, hits give high values
Serotonin receptor 5ht3 = details: PDSP radioligand binding panel, at 10 µM, hits give high values
[8] = target: Muscarinic acetylcholine receptor M3 (Homo sapiens) (UniProt P20309); details: PDSP radioligand binding panel, at 10 µM, hits give high values
Sequence of Muscarinic acetylcholine receptor M3 (Homo sapiens) (P20309 whole entry, looked up): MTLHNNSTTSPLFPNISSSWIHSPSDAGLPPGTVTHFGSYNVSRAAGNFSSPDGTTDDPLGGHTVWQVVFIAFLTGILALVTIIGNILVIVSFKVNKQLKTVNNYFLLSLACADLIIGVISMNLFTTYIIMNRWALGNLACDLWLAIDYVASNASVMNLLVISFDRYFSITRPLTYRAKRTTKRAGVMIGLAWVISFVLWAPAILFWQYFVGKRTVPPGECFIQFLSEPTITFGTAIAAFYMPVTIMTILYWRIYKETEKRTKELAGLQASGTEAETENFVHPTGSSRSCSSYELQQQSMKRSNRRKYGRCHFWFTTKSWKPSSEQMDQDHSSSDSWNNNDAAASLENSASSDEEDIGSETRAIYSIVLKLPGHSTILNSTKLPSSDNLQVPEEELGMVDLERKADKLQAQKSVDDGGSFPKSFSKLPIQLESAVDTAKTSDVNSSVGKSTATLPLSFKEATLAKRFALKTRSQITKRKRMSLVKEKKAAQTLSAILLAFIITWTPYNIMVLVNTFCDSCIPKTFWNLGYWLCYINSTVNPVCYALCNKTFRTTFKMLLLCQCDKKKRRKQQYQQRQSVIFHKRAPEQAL

Sigma receptor 1 = details: PDSP radioligand binding panel, at 10 µM, hits give high values
Serotonin receptor 5ht1a = details: PDSP radioligand binding panel, at 10 µM, hits give high values
[9] = target: Muscarinic acetylcholine receptor M1 (Homo sapiens) (UniProt P11229); details: PDSP radioligand binding panel, at 10 µM, hits give high values
Sequence of Muscarinic acetylcholine receptor M1 (Homo sapiens) (P11229 whole entry, looked up): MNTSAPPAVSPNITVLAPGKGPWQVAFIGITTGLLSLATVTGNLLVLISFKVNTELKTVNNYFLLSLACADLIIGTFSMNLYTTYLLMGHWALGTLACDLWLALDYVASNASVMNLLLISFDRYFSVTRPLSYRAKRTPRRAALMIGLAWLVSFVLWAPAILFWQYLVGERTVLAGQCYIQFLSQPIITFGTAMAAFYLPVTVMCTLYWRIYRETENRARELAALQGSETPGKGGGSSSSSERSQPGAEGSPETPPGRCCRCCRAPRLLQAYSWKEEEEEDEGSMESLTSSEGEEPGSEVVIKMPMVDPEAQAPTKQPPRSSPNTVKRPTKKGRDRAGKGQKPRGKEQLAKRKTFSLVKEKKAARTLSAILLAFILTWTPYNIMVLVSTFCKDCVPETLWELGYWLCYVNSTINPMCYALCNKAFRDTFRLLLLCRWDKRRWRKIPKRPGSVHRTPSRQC

[10] = target: Delta-type opioid receptor (Homo sapiens) (UniProt P41143); details: PDSP radioligand binding panel, Opioid receptor DOR, at 10 µM, hits give high values
Sequence of Delta-type opioid receptor (Homo sapiens) (P41143 whole entry, looked up): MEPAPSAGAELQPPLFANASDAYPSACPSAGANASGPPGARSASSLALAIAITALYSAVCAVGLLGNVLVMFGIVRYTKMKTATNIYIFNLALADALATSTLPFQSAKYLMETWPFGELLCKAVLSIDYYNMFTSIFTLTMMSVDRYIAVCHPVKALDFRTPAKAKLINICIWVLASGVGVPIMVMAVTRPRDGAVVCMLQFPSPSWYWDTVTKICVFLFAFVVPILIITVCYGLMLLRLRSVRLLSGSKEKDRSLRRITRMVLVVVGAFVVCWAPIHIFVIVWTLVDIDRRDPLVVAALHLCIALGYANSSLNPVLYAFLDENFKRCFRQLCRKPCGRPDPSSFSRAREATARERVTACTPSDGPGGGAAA

Serotonin receptor 5ht2a = details: PDSP radioligand binding panel, at 10 µM, hits give high values
Serotonin receptor 5ht6 = details: PDSP radioligand binding panel, at 10 µM, hits give high values
Serotonin receptor 5ht1e = details: PDSP radioligand binding panel, at 10 µM, hits give high values
Opioid receptor MOR = details: PDSP radioligand binding panel, at 10 µM, hits give high values
[11] = test system: Adrenergic receptor Alpha1D; details: PDSP radioligand binding panel, at 10 µM, hits give high values
Histamine receptor H4 = details: PDSP radioligand binding panel, at 10 µM, hits give high values
[12] = target: 5-hydroxytryptamine receptor 2B (Homo sapiens) (UniProt P41595); details: PDSP radioligand binding panel, Serotonin receptor 5ht2b, at 10 µM, hits give high values
Sequence of 5-hydroxytryptamine receptor 2B (Homo sapiens) (P41595 whole entry, looked up): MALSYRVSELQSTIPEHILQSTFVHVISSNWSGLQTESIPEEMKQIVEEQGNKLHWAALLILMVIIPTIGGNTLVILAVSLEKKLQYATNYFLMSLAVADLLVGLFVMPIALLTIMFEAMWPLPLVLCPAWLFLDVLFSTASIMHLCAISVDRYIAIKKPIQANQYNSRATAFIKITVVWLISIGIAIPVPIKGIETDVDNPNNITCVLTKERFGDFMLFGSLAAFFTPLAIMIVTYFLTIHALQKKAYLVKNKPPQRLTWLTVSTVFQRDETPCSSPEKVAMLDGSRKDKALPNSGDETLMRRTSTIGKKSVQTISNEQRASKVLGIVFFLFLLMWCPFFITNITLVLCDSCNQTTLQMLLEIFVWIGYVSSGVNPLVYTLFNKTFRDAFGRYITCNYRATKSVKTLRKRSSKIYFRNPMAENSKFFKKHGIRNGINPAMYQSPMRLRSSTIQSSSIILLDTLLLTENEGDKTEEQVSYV

Histamine receptor H2 = details: PDSP radioligand binding panel, at 10 µM, hits give high values
Serotonin receptor 5ht1d = details: PDSP radioligand binding panel, at 10 µM, hits give high values
[13] = target: D(3) dopamine receptor (Homo sapiens) (UniProt P35462); details: PDSP radioligand binding panel, Dopamine receptor D3, at 10 µM, hits give high values
Sequence of D(3) dopamine receptor (Homo sapiens) (P35462 whole entry, looked up): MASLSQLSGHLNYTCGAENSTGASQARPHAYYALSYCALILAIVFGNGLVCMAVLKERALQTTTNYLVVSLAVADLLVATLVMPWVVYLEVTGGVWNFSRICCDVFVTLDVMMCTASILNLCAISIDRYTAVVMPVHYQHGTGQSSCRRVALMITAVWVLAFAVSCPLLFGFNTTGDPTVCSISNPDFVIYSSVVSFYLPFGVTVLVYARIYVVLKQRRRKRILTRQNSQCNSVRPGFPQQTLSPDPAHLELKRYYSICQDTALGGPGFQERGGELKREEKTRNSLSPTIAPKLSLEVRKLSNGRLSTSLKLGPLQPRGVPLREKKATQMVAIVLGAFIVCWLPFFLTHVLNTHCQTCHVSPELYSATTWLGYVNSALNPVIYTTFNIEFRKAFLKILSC

Serotonin receptor 5ht1b = details: PDSP radioligand binding panel, at 10 µM, hits give high values
[14] = target: Beta-2 adrenergic receptor (Homo sapiens) (UniProt P07550); details: PDSP radioligand binding panel, Adrenergic receptor Beta2, at 10 µM, hits give high values
Sequence of Beta-2 adrenergic receptor (Homo sapiens) (P07550 whole entry, looked up): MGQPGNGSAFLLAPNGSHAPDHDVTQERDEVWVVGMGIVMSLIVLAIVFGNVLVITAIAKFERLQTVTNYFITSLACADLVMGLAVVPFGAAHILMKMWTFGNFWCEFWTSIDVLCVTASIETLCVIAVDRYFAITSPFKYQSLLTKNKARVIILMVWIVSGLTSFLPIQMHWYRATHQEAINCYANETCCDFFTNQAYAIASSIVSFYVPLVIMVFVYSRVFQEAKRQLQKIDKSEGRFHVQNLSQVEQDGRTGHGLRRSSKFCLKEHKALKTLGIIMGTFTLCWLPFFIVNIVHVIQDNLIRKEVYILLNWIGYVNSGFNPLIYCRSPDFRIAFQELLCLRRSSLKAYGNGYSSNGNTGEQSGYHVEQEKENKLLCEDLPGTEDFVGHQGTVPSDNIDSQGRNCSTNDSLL

[15] = target: Muscarinic acetylcholine receptor M2 (Homo sapiens) (UniProt P08172); details: PDSP radioligand binding panel, at 10 µM, hits give high values
Sequence of Muscarinic acetylcholine receptor M2 (Homo sapiens) (P08172 whole entry, looked up): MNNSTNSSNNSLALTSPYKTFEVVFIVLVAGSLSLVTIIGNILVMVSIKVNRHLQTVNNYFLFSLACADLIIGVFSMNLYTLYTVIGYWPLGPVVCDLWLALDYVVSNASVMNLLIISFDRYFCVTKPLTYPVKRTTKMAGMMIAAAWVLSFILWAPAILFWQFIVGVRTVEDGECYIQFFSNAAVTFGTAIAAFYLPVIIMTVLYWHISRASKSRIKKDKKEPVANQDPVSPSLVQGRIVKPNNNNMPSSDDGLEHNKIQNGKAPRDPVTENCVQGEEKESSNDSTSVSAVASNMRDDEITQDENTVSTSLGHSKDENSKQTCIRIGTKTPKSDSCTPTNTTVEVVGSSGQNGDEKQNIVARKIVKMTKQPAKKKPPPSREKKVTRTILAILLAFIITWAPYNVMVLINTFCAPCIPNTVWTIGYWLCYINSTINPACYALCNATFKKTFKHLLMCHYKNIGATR

Serotonin receptor 5ht7 = details: PDSP radioligand binding panel, at 10 µM, hits give high values
[16] = test system: Adrenergic receptor Alpha1B; details: PDSP radioligand binding panel, at 10 µM, hits give high values
[17] = test system: Adrenergic receptor Alpha1A; details: PDSP radioligand binding panel, at 10 µM, hits give high values
GABA receptor GABAa = details: PDSP radioligand binding panel, at 10 µM, hits give high values
Serotonin receptor 5ht5a = details: PDSP radioligand binding panel, at 10 µM, hits give high values
Serotonin receptor 5ht2c = details: PDSP radioligand binding panel, at 10 µM, hits give high values
[18] = target: D(1A) dopamine receptor (Homo sapiens) (UniProt P21728); details: PDSP radioligand binding panel, Dopamine receptor D1, at 10 µM, hits give high values
Sequence of D(1A) dopamine receptor (Homo sapiens) (P21728 whole entry, looked up): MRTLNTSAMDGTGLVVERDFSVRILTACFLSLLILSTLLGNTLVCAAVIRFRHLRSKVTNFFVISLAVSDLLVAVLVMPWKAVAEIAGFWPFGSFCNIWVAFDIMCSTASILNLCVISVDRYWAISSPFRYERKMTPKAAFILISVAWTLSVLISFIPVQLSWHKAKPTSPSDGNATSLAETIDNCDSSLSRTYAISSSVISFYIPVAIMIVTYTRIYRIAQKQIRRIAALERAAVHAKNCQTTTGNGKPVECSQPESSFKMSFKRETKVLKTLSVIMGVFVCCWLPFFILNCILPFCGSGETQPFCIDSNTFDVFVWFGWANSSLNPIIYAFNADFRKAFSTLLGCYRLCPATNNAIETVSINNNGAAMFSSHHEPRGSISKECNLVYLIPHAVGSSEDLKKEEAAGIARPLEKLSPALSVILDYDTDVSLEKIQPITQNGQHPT

For `CC(=O)c1ccc2c(c1)Nc1ccccc1S2`, the inhibition (Muscarinic receptor M4) was -9.4% (inactive), the inhibition [1] was 2.6% (inactive) and the inhibition [2] was 74.1% (inactive). The inhibition [3] was 29.1% (inactive), the inhibition [4] was 38.7% (inactive) and the inhibition (Dopamine receptor D4) was 0.9% (inactive). The inhibition [5] was 8.8% (inactive), the inhibition [6] was -13.9% (inactive) and the inhibition (Muscarinic receptor M5) was 10.5% (inactive). For the same compound, the inhibition (Dopamine receptor D2) was -1.5% (inactive), the inhibition [7] was 102% and the inhibition (Histamine receptor H3) was 4% (inactive). The inhibition (Histamine receptor H1) was 35.7% (inactive), the inhibition (Serotonin receptor 5ht3) was 7.8% (inactive) and the inhibition [8] was -0.4% (inactive). The inhibition (Sigma receptor 1) was 6.3% (inactive), the inhibition (Serotonin receptor 5ht1a) was 21.4% (inactive) and the inhibition [9] was -14.2% (inactive). The inhibition [10] was 0.8% (inactive), the inhibition (Serotonin receptor 5ht2a) was 0.5% (inactive) and the inhibition (Serotonin receptor 5ht6) was 3.5% (inactive). For the same compound, the inhibition (Serotonin receptor 5ht1e) was -36.5% (inactive), the inhibition (Opioid receptor MOR) was 16.6% (inactive) and the inhibition [11] was 17.9% (inactive). For the same compound, the inhibition (Histamine receptor H4) was -16% (inactive), the inhibition [12] was 78.9% and the inhibition (Histamine receptor H2) was 9.9% (inactive). The inhibition (Serotonin receptor 5ht1d) was 15.3% (inactive), the inhibition [13] was 97.3% and the inhibition (Serotonin receptor 5ht1b) was 5.8% (inactive). The inhibition [14] was 11.4% (inactive), the inhibition [15] was -6.7% (inactive) and the inhibition (Serotonin receptor 5ht7) was -19% (inactive). For the same compound, the inhibition [16] was 9% (inactive), the inhibition [17] was -2.9% (inactive) and the inhibition (GABA receptor GABAa) was 28.7% (inactive). For the same compound, the inhibition (Serotonin receptor 5ht5a) was -7.7% (inactive), the inhibition (Serotonin receptor 5ht2c) was 31.5% (inactive) and the inhibition [18] was 13.9% (inactive).
